# In patent publication US20070128217A1 (priority 2003, published 2007):
# Assays:
# [1] = test system: antibodies in sera from SARS patients (sera 1a, 1b, 2, 6, 37, 62, London, SARS-yellow, SARS-green); format: binding, human; design: Binding of serum 6 to linear peptides of protein X1 of SARS-CoV Urbani / Binding of serum 37 to linear peptides of protein X1 of SARS-CoV Urbani / Binding of serum 6 to looped/cyclic peptide (PEPSCAN-ELISA) / Binding of serum 37 to looped/cyclic peptide (PEPSCAN-ELISA) / Binding of serum 37 to looped/cyclic peptides of protein X1 of SARS-CoV Urbani / Binding of serum 6 to linear peptides of protein X2 / Binding of serum 37 to linear peptides of protein X2 / Binding of serum 37 to looped/cyclic peptides of protein X2 of SARS-CoV Urbani / Binding of serum 6 to linear peptides of protein M of SARS-CoV Urbani / Binding of serum 37 to linear peptides of protein M of SARS-CoV Urbani / Binding of serum 6 to looped/cyclic peptides of protein M of SARS-CoV Urbani / Binding of serum 37 to looped/cyclic peptides of protein M of SARS-CoV Urbani / Binding of serum 6 to linear peptides of protein X3 of SARS-CoV Urbani / Binding of serum 37 to linear peptides of protein X3 of SARS-CoV Urbani / Binding of serum 37 to looped/cyclic peptides of protein X3 of SARS-CoV Urbani / Binding of serum 6 to linear peptides of protein X4 of SARS-CoV Urbani / Binding of serum 37 to linear peptides of protein X4 of SARS-CoV Urbani / Binding of serum 37 to looped/cyclic peptides of protein X4 of SARS-CoV Urbani / Binding of serum 6 to linear peptides of protein X5 of SARS-CoV Urbani / Binding of serum 37 to linear peptides of protein X5 of SARS-CoV Urbani / Binding of serum 37 to looped/cyclic peptides of protein X5 of SARS-CoV Urbani / Binding of serum 6 to linear peptides of protein N of SARS-CoV Urbani / Binding of serum 37 to linear peptides of protein N of SARS-CoV Urbani / Binding of serum 6 to linear peptide (PEPSCAN-ELISA) / Binding of serum 1a to looped/cyclic peptides of protein N of SARS-CoV Urbani / Binding of serum 1b to looped/cyclic peptides of protein N of SARS-CoV Urbani / Binding of serum 2 to looped/cyclic peptides of protein N of SARS-CoV Urbani / Binding of serum 6 to looped/cyclic peptides of protein N of SARS-CoV Urbani / Binding of serum 37 to looped/cyclic peptides of protein N of SARS-CoV Urbani / Binding of serum 62 to looped/cyclic peptides of protein N of SARS-CoV Urbani / Binding of serum London to looped/cyclic peptides of protein N of SARS-CoV Urbani / Binding of serum SARS-green to looped/cyclic peptides of protein N of SARS-CoV Urbani: unit not given here
# [2] = test system: rabbit serum obtained by immunizing a rabbit with the SARS-CoV strain Frankfurt 1; format: binding; design: Binding of a rabbit serum to linear peptides / Binding of a rabbit serum to looped peptides / Rabbit serum linear peptides / Rabbit serum looped peptides / Binding of a rabbit serum to linear peptides of protein N of SARS-CoV Urbani (Rabbit serum linear peptides) / Binding of a rabbit serum to looped/cyclic peptides of protein N of SARS-CoV Urbani (Rabbit serum looped peptides): unit not given here
# [3] = test system: control sera (pooled serum of ten healthy LUMC hospital workers; commercial negative donor pooled serum from the Dutch bloodbank); format: binding, human
sequence,measurement,setting,value
HKLLQTLVLKMLHSS,Binding of serum 1a to linear peptides of protein X2,[1],0.5
same,Binding of serum 1a to looped/cyclic peptides of protein X2 of SARS-CoV Urbani,[1],0.6
same,Binding of serum 1b to linear peptides of protein X2,[1],0.5
same,Binding of serum 1b to looped/cyclic peptides of protein X2 of SARS-CoV Urbani,[1],0.6
same,Binding of serum 2 to linear peptides of protein X2,[1],0.4
same,Binding of serum 2 to looped/cyclic peptides of protein X2 of SARS-CoV Urbani,[1],0.4
same,Binding of serum 6 to linear peptides of protein X2,[1],0.2
same,Binding of serum 6 to looped/cyclic peptides of protein X2 of SARS-CoV Urbani,[1],0.4
same,Binding of serum 37 to linear peptides of protein X2,[1],0.5
same,Binding of serum 37 to looped/cyclic peptides of protein X2 of SARS-CoV Urbani,[1],0.5
same,Binding of serum 62 to linear peptides of protein X2,[1],0.5
same,Binding of serum 62 to looped/cyclic peptides of protein X2 of SARS-CoV Urbani,[1],0.7
same,Binding of serum London to linear peptides of protein X2,[1],0.4
same,Binding of serum London to looped/cyclic peptides of protein X2 of SARS-CoV Urbani,[1],0.3
same,Binding of serum SARS-green to linear peptides of protein X2,[1],0.4
same,Binding of serum SARS-green to looped/cyclic peptides of protein X2 of SARS-CoV Urbani,[1],0.3
same,Binding of serum SARS-yellow to linear peptides of protein X2,[1],0.5
same,Binding of serum SARS-yellow to looped/cyclic peptides of protein X2 of SARS-CoV Urbani,[1],0.5
same,Binding of a rabbit serum to linear peptides,[2],0.2
same,Binding of a rabbit serum to looped peptides,[2],0.4
same,Binding of Control Serum Blood-Bank to Looped peptides,[3],0.7
same,Binding of Control serum Blood-bank to linear peptides,[3],0.6
same,Binding of Control serum LUMC to linear peptides,[3],0.4
same,Binding of Control serum LUMC to looped peptides,[3],0.7
HLVDFQVTIAEILII,Binding of serum 1a to linear peptides of protein X3 of SARS-CoV Urbani,[1],0.8
same,Binding of serum 1a to looped/cyclic peptides of protein X3 of SARS-CoV Urbani,[1],0.7
same,Binding of serum 1b to linear peptides of protein X3 of SARS-CoV Urbani,[1],0.6
same,Binding of serum 1b to looped/cyclic peptides of protein X3 of SARS-CoV Urbani,[1],0.4
same,Binding of serum 2 to linear peptides of protein X3 of SARS-CoV Urbani,[1],0.7
same,Binding of serum 2 to looped/cyclic peptides of protein X3 of SARS-CoV Urbani,[1],0.6
same,Binding of serum 6 to linear peptides of protein X3 of SARS-CoV Urbani,[1],0.5
same,Binding of serum 6 to looped/cyclic peptides of protein X3 of SARS-CoV Urbani,[1],0.4
same,Binding of serum 37 to linear peptides of protein X3 of SARS-CoV Urbani,[1],0.7
same,Binding of serum 37 to looped/cyclic peptides of protein X3 of SARS-CoV Urbani,[1],0.6
same,Binding of serum 62 to linear peptides of protein X3 of SARS-CoV Urbani,[1],0.6
same,Binding of serum 62 to looped/cyclic peptides of protein X3 of SARS-CoV Urbani,[1],0.7
same,Binding of serum London to linear peptides of protein X3 of SARS-CoV Urbani,[1],0.6
same,Binding of serum London to looped/cyclic peptides of protein X3 of SARS-CoV Urbani,[1],0.2
same,Binding of serum SARS-green to linear peptides of protein X3 of SARS-CoV Urbani,[1],0.4
same,Binding of serum SARS-green to looped/cyclic peptides of protein X3 of SARS-CoV Urbani,[1],0.2
same,Binding of serum SARS-yellow to linear peptides of protein X3 of SARS-CoV Urbani,[1],0.5
same,Binding of serum SARS-yellow to looped/cyclic peptides of protein X3 of SARS-CoV Urbani,[1],0.7
same,Rabbit serum linear peptides,[2],0.3
same,Rabbit serum looped peptides,[2],0.3
same,Binding of Control Serum Blood-Bank to Looped peptides of the protein X3 of SARS-CoV Urbani,[3],0.9
same,Binding of Control serum Blood-bank to linear peptides of the protein X3 of SARS-CoV Urbani,[3],0.8
same,Binding of Control serum LUMC to linear peptides of the protein X3 of SARS-CoV Urbani,[3],0.7
same,Binding of Control serum LUMC to looped peptides of the protein X3 of SARS-CoV Urbani,[3],0.7
